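Each compound was tested at five concentrations against cells in 96-well plates for 48 hours. GI50: concentration for 50% inhibition of growth.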 Active and inactive are the calls of the source. Rule as the data show it: active = GI50 up to about 1.1 µM and inactive = higher.
Columns and labels:
Assay in all cases: DTP human tumour cell line panel, 48 h
NCI-H460 = system: NCI-H460
786-0 = system: 786-0
EKVX = system: EKVX
CCRF-CEM = system: CCRF-CEM
Malme-3M = system: Malme-3M
RXF 393 = system: RXF 393
SR = system: SR
LOX IMVI = system: LOX IMVI
OVCAR-3 = system: OVCAR-3
OVCAR-4 = system: OVCAR-4
HCC 2998 = system: HCC 2998
HL-60 = system: HL-60
SK-MEL-5 = system: SK-MEL-5
U-251 = system: U-251
HCT-15 = system: HCT-15
NCI-H23 = system: NCI-H23
SW-620 = system: SW-620
ACHN = system: ACHN
SNB-19 = system: SNB-19
Hs-578T = system: Hs-578T

Row | SMILES | GI50 (NCI-H460) | GI50 (786-0) | GI50 (EKVX) | GI50 (CCRF-CEM) | GI50 (Malme-3M) | GI50 (RXF 393) | GI50 (SR) | GI50 (LOX IMVI) | GI50 (OVCAR-3) | GI50 (OVCAR-4) | GI50 (HCC 2998) | GI50 (HL-60) | GI50 (SK-MEL-5) | GI50 (U-251) | GI50 (HCT-15) | GI50 (NCI-H23) | GI50 (SW-620) | GI50 (ACHN) | GI50 (SNB-19) | GI50 (Hs-578T)
1 | CCC(C)CNC1=C(NC(C)=O)C(=O)c2ccccc2C1=O (centres undefined) | 94.6 µM (inactive) | > 100 µM (inactive) | > 100 µM (inactive) | > 100 µM (inactive) | 35.5 µM (inactive) | > 100 µM (inactive) | > 100 µM (inactive) | > 100 µM (inactive) | 55.7 µM (inactive) | > 100 µM (inactive) | > 100 µM (inactive) | > 100 µM (inactive) | 31.6 µM (inactive) | > 100 µM (inactive) | > 100 µM | 67.8 µM (inactive) | > 100 µM (inactive) | > 100 µM (inactive) | > 100 µM (inactive) | 
2 | COc1ccc(CC2c3cc(OC)c(OC)cc3CC[N+]2(C)C)cc1OC (centres undefined) | > 100 µM (inactive) | > 100 µM (inactive) | > 100 µM (inactive) | > 100 µM (inactive) | > 100 µM (inactive) |  |  | > 100 µM (inactive) | > 100 µM (inactive) | > 100 µM (inactive) | > 100 µM (inactive) | > 100 µM (inactive) | > 100 µM (inactive) | > 100 µM (inactive) | > 100 µM | > 100 µM (inactive) | > 100 µM (inactive) | > 100 µM (inactive) | > 100 µM (inactive) | > 100 µM (inactive)
3 | CC(C)(Cc1ccccc1)Cc1cc(O)ccc1O | 16.6 µM (inactive) | 12.7 µM (inactive) | 24.9 µM (inactive) | 4.49 µM (inactive) | 16.8 µM (inactive) | 13.6 µM (inactive) | 4.63 µM (inactive) | 13.3 µM (inactive) | 11.8 µM (inactive) | 16.4 µM (inactive) | 20 µM (inactive) | 2.22 µM (inactive) |  | 15.2 µM (inactive) | 17.5 µM | 14.6 µM (inactive) | 22.6 µM (inactive) | 20.8 µM (inactive) | 17.7 µM (inactive) | 
4 | Cc1c(-c2nnc(-c3ccc(Cl)cc3)o2)c(=O)n(-c2ccccc2)n1C | > 100 µM (inactive) | > 100 µM (inactive) | > 100 µM (inactive) | > 100 µM (inactive) | > 100 µM (inactive) | > 100 µM (inactive) | > 100 µM (inactive) | > 100 µM (inactive) | > 100 µM (inactive) | > 100 µM (inactive) | > 100 µM (inactive) | > 100 µM (inactive) |  | > 100 µM (inactive) | > 100 µM | > 100 µM (inactive) | > 100 µM (inactive) | > 100 µM (inactive) | > 100 µM (inactive) | 
5 | CCCCCC[C@H]1CC(=O)C2CCCC[C@@]23CC[C@H](CCl)N13.CCCCCC[C@H]1CC(=O)C2CCCC[C@@]23C[C@H](Cl)CN13 (some centres undefined) | 98.2 µM (inactive) | > 100 µM (inactive) | 49.9 µM (inactive) | 33.2 µM (inactive) | 55.3 µM (inactive) |  |  |  | 25.1 µM (inactive) | 40.2 µM (inactive) | > 100 µM (inactive) | 21.8 µM (inactive) | 17.2 µM (inactive) | 29.6 µM (inactive) | 60.3 µM | 47.5 µM (inactive) |  | 53.5 µM (inactive) | 37.9 µM (inactive) | 8.53 µM (inactive)
6 | C/C(=N\Nc1ccccc1)c1sc(-c2nc(C)c(/C(C)=N/Nc3ccccc3)s2)nc1C | 42.2 µM (inactive) | 18.8 µM (inactive) | 24.7 µM (inactive) | 28.3 µM (inactive) | 16.1 µM (inactive) | 22.8 µM (inactive) | 25.6 µM (inactive) | 7.96 µM (inactive) | 23.6 µM (inactive) | 21.2 µM (inactive) | 7.93 µM (inactive) | 31.8 µM (inactive) | 16.7 µM (inactive) | 37.1 µM (inactive) | 11.4 µM | 32.7 µM (inactive) | 13.8 µM (inactive) | 10.4 µM (inactive) | > 63.1 µM (inactive) | 
7 | COC(=O)CC[C@]12C[C@]13CC[C@]1(C)C4C(C)C[C@]5(CC(C)C(=O)O5)OC4CC1(C)C3CCC2C(C)(C)O (some centres undefined) | 68.7 µM (inactive) | > 100 µM (inactive) | > 100 µM (inactive) |  | > 100 µM (inactive) | 46.8 µM (inactive) | 42.2 µM (inactive) | 32.5 µM (inactive) | 76 µM (inactive) | 95.9 µM (inactive) | 51.5 µM (inactive) | 23.3 µM (inactive) | 35.6 µM (inactive) | 62.2 µM (inactive) | 50.9 µM | 97.3 µM (inactive) | 56 µM (inactive) | 88.3 µM (inactive) | 51.2 µM (inactive) | 
8 | COc1ccc(O)cc1C=O | > 100 µM (inactive) | > 100 µM (inactive) | > 100 µM (inactive) | 44 µM (inactive) | 46.3 µM (inactive) | > 100 µM (inactive) | 18.8 µM (inactive) | 54 µM (inactive) | > 100 µM (inactive) | > 100 µM (inactive) | > 100 µM (inactive) | 21.4 µM (inactive) | 61 µM (inactive) | > 100 µM (inactive) | 37.6 µM | > 100 µM (inactive) | 47.5 µM (inactive) | > 100 µM (inactive) | > 100 µM (inactive) | 
9 | CO/C(=N\N=C\c1ccc(C(F)(F)F)cc1)c1ccncc1 | > 10 µM (inactive) | > 10 µM (inactive) | > 10 µM (inactive) | > 10 µM (inactive) | > 10 µM (inactive) | > 10 µM (inactive) | > 10 µM (inactive) | > 10 µM (inactive) | > 10 µM (inactive) | > 10 µM (inactive) | > 10 µM (inactive) | > 10 µM (inactive) |  | > 10 µM (inactive) | > 10 µM | > 10 µM (inactive) | > 10 µM (inactive) | > 10 µM (inactive) | > 10 µM (inactive) | 
10 | NC(=O)C1Cc2cc3c(cc21)OCO3 (centres undefined) | > 100 µM (inactive) | > 100 µM (inactive) | > 100 µM (inactive) |  | > 100 µM (inactive) | > 100 µM (inactive) |  | > 100 µM (inactive) | > 100 µM (inactive) |  | > 100 µM (inactive) |  | > 100 µM (inactive) |  | > 100 µM | > 100 µM (inactive) |  | > 100 µM (inactive) | > 100 µM (inactive) | > 100 µM (inactive)
11 | COC1=C(C)C(=O)c2c(cc3c(c2O)C(C)(CCC=C(C)C)C(C)O3)C1=O (centres undefined) | 14.1 µM (inactive) | > 100 µM (inactive) | > 100 µM (inactive) | > 100 µM (inactive) | > 76.4 µM (inactive) | > 100 µM (inactive) | > 85.7 µM (inactive) | 18.2 µM (inactive) | > 100 µM (inactive) | > 100 µM (inactive) | 42.1 µM (inactive) | > 100 µM (inactive) | 13.4 µM (inactive) | > 44.6 µM (inactive) | 27.4 µM | 9.71 µM (inactive) | > 100 µM (inactive) | > 100 µM (inactive) | 19.2 µM (inactive) | 
12 | O=C(CCN1CCCCC1CCO)Nc1ccc2c(c1)C(=O)c1ccc(NC(=O)CCN3CCCCC3CCO)cc1C2=O (centres undefined) | 3.6 µM (inactive) | 1.97 µM (inactive) | 7.41 µM (inactive) | 2.62 µM (inactive) | 2.64 µM (inactive) | 2.12 µM (inactive) | 4.14 µM (inactive) | 2.99 µM (inactive) | 2.37 µM (inactive) | 12.4 µM (inactive) | 0.0418 µM (active) | 3.24 µM (inactive) | 9.4 µM (inactive) | 4.08 µM (inactive) | 11.2 µM | 15 µM (inactive) | 2.12 µM (inactive) | 7.93 µM (inactive) | 6.07 µM (inactive) | 
13 | C[C@@H]1C[C@]2(C[C@@H](C)C3[C@@H](CC4(C)[C@@H]5CCC6C(C)(C)OC(=O)C=C[C@]67C[C@@]5(CC[C@]34C)OO7)O2)OC1=O (some centres undefined) | 86.7 µM (inactive) | > 100 µM (inactive) |  |  | 37.9 µM (inactive) | > 100 µM (inactive) | > 100 µM (inactive) | 44.2 µM (inactive) | 24.1 µM (inactive) | 24.8 µM (inactive) | > 100 µM (inactive) | 46.2 µM (inactive) | 37.9 µM (inactive) | 73.3 µM (inactive) | > 100 µM | > 100 µM (inactive) | 84.3 µM (inactive) | 92.5 µM (inactive) | 49.4 µM (inactive) | 
14 | COC(=O)C(=O)C(C(=O)C=C(C)C)C(=O)C(=O)Nc1ccc(Cl)cc1C (centres undefined) | > 100 µM (inactive) | > 100 µM (inactive) | > 100 µM (inactive) | 87.5 µM (inactive) | > 100 µM (inactive) | > 100 µM (inactive) | 23.3 µM (inactive) | > 100 µM (inactive) | > 100 µM (inactive) | > 100 µM (inactive) | > 100 µM (inactive) | > 100 µM (inactive) | > 100 µM (inactive) | > 100 µM (inactive) | > 100 µM | > 100 µM (inactive) |  | > 100 µM (inactive) | > 100 µM (inactive) | 
15 | Oc1c2c(nc3cc4c(cc13)OCO4)-c1ccccc1CC2 | > 100 µM (inactive) | > 100 µM (inactive) | > 100 µM (inactive) | > 100 µM (inactive) | > 100 µM (inactive) | 78 µM (inactive) | > 100 µM (inactive) | > 100 µM (inactive) | > 100 µM (inactive) | > 100 µM (inactive) | > 100 µM (inactive) | > 100 µM (inactive) | > 100 µM (inactive) | > 100 µM (inactive) | > 100 µM | > 100 µM (inactive) | > 100 µM (inactive) | > 100 µM (inactive) | > 100 µM (inactive) | 
